# Test results taken from article PMC3961306, “Comparison of the Cancer Gene Targeting and Biochemical Selectivities of All Targeted Kinase Inhibitors Approved for Clinical Use” (PLoS ONE, 2014).
# Experiments:
# Assay in all cases: Kinase profiling in a biochemical assay panel (mobility shift assays and ELISA), %-inhibition at 1 μM; selectivity entropy
# [1] = biological target: T1, panel of more than 300 wild-type and mutant kinases (313 kinase panel) (Homo sapiens, UniProt O43781)
# T1 sequence (O43781 1-588): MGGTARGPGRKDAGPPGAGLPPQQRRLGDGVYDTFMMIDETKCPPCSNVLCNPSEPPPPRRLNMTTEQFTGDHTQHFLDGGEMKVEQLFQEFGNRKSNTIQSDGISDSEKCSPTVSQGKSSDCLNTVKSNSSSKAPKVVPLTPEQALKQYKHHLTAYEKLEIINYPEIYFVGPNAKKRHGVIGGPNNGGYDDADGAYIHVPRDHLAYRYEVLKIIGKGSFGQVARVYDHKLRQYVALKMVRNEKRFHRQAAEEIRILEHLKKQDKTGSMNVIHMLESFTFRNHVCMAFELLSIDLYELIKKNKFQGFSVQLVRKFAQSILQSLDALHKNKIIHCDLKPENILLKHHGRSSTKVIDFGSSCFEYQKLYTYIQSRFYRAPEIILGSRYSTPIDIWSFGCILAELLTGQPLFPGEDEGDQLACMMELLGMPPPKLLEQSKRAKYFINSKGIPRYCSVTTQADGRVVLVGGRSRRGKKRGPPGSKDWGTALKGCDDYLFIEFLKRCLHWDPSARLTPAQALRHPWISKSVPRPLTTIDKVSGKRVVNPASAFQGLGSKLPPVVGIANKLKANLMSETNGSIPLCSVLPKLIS
# [2] = biological target: panel of more than 300 wild-type and mutant kinases (313 kinase panel) (Homo sapiens, UniProt P07333)
# [3] = biological target: T2, panel of more than 300 wild-type and mutant kinases (313 kinase panel) (Homo sapiens, UniProt Q9UHD2)
# T2 sequence (Q9UHD2 1-729): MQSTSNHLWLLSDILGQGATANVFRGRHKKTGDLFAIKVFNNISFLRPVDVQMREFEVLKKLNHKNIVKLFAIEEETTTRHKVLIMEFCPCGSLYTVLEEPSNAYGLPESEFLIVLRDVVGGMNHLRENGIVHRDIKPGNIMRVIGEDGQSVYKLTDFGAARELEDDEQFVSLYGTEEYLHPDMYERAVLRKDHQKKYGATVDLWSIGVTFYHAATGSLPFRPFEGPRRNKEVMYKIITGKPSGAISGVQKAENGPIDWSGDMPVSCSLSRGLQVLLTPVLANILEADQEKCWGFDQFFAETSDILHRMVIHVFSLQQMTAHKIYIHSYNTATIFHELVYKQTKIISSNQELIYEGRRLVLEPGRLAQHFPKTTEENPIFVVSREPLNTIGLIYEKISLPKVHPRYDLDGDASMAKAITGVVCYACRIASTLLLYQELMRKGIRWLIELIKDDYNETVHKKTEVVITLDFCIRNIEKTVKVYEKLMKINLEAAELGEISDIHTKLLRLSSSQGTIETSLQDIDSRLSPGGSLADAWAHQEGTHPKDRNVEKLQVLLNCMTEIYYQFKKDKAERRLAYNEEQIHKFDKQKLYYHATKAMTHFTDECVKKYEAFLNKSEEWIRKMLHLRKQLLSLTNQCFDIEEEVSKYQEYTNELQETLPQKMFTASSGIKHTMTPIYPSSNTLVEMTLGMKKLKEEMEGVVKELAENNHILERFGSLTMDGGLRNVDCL
# [4] = biological target: T3, panel of more than 300 wild-type and mutant kinases (313 kinase panel) (Homo sapiens, UniProt Q8TDC3)
# T3 sequence (Q8TDC3 1-778): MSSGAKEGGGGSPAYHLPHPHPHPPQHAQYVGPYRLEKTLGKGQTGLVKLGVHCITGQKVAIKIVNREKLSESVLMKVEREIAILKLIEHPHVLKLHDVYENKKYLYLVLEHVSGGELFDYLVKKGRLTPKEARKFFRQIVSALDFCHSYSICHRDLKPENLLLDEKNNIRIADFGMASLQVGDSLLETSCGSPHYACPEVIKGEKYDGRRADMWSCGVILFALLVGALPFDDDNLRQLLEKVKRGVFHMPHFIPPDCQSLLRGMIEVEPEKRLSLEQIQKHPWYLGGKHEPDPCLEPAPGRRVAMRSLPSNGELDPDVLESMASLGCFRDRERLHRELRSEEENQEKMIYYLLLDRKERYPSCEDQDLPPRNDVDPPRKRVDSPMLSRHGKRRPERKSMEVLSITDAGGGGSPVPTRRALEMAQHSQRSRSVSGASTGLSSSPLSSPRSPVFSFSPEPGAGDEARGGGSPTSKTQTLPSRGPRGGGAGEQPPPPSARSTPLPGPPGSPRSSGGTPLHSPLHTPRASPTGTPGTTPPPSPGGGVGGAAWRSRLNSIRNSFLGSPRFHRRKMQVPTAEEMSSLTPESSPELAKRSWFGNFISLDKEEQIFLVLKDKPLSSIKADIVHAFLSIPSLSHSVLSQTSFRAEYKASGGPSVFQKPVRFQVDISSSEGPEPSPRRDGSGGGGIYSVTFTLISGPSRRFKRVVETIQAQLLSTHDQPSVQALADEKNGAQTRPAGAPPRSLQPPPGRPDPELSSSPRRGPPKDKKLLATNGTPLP
SMILES,"%-inhibition of DYRK3 ([1]; kinase DYRK3, compound at 1 μM)","%-inhibition of FMS ([2]; kinase FMS, compound at 1 μM)","%-inhibition of TBK1 ([3]; kinase TBK1, 1 μM)","%-inhibition, BRSK1 ([4]; kinase BRSK1, 1 μM compound)",%-inhibition of DYRK3 ([1]; 1 µM),%-inhibition of TBK1 ([3]; 1 µM),"%-inhibition, BRSK1 ([4]; 1 µM)",%-inhibition of FMS ([2]; 1 µM)
CN(C)C/C=C/C(=O)Nc1cc2c(Nc3ccc(F)c(Cl)c3)ncnc2cc1O[C@H]1CCOC1 [afatinib],29%,,,,,,,
COc1cc(Nc2c(C#N)cnc3cc(OCCCN4CCN(C)CC4)c(OC)cc23)c(Cl)cc1Cl [bosutinib],12%,93%,32%,-11%,,,,
COc1cc2nccc(Oc3ccc(NC(=O)C4(C(=O)Nc5ccc(F)cc5)CC4)cc3)c2cc1OC [cabozantinib],4%,54%,-0.506%,3.24%,,,,
C[C@@H](Oc1cc(-c2cnn(C3CCNCC3)c2)cnc1N)c1c(Cl)ccc(F)c1Cl [crizotinib],14%,92%,1.42%,12%,,,,
CC(C)(C)c1nc(-c2cccc(NS(=O)(=O)c3c(F)cccc3F)c2F)c(-c2ccnc(N)n2)s1 [dabrafenib],-5.68%,15%,-1.15%,37%,,,,
C#Cc1cccc(Nc2ncnc3cc(OCCOC)c(OCCOC)cc23)c1 [erlotinib],,,,,22%,26%,5.68%,
CO[C@H]1C[C@@H]2CC[C@@H](C)[C@@](O)(O2)C(=O)C(=O)N2CCCC[C@H]2C(=O)O[C@H]([C@H](C)C[C@@H]2CC[C@@H](OCCO)[C@H](OC)C2)CC(=O)[C@H](C)/C=C(\C)[C@@H](O)[C@@H](OC)C(=O)[C@H](C)C[C@H](C)/C=C/C=C/C=C/1C [everolimus],-11%,-2.3%,-5%,-9%,,,,
O=S(=O)(c1cccc2cnccc12)N1CCCNCC1 [fasudil],26%,-3%,-5%,-0.211%,,,,
CS(=O)(=O)CCNCc1ccc(-c2ccc3ncnc(Nc4ccc(OCc5cccc(F)c5)c(Cl)c4)c3c2)o1 [lapatinib],-2.24%,-5.46%,-14%,2%,,,,
Cc1cn(-c2cc(NC(=O)c3ccc(C)c(Nc4nccc(-c5cccnc5)n4)c3)cc(C(F)(F)F)c2)cn1 [nilotinib],-1.09%,,,0.801%,,6%,,52%
Cc1ccc(Nc2nccc(N(C)c3ccc4c(C)n(C)nc4c3)n2)cc1S(N)(=O)=O [pazopanib],-4.54%,,-2.68%,-1.05%,,,,
Cc1ccc(C(=O)Nc2ccc(CN3CCN(C)CC3)c(C(F)(F)F)c2)cc1C#Cc1cnc2cccnn12 [ponatinib],50%,101%,,-8%,,,,
CNC(=O)c1cc(Oc2ccc(NC(=O)Nc3ccc(Cl)c(C(F)(F)F)c3)c(F)c2)ccn1 [regorafenib],15%,92%,-2.13%,-17%,,,,
N#CC[C@H](C1CCCC1)n1cc(-c2ncnc3[nH]ccc23)cn1 [ruxolitinib],-9%,,21%,-6.38%,,,,68%
CCN(CC)CCNC(=O)c1c(C)[nH]c(/C=C2\C(=O)Nc3ccc(F)cc32)c1C [sunitinib],,,56%,,,,,
CO[C@H]1C[C@@H]2CC[C@@H](C)[C@@](O)(O2)C(=O)C(=O)N2CCCC[C@H]2C(=O)O[C@H]([C@H](C)C[C@@H]2CC[C@@H](OC(=O)C(C)(CO)CO)[C@H](OC)C2)CC(=O)[C@H](C)/C=C(\C)[C@@H](O)[C@@H](OC)C(=O)[C@H](C)C[C@H](C)/C=C/C=C/C=C/1C [temsirolimus],-0.454%,-1.41%,-2.23%,-14%,,,,
CC(=O)Nc1cccc(-n2c(=O)n(C3CC3)c(=O)c3c(Nc4ccc(I)cc4F)n(C)c(=O)c(C)c32)c1 [trametinib],-10%,-4%,-4.47%,-6%,,,,
COc1cc2c(Nc3ccc(Br)cc3F)ncnc2cc1OCC1CCN(C)CC1 [vandetanib],-5%,,0.911%,-9%,,,,
CCCS(=O)(=O)Nc1ccc(F)c(C(=O)c2c[nH]c3ncc(-c4ccc(Cl)cc4)cc23)c1F [vemurafenib],5%,6%,-0.81%,-8%,,,,
